A word on the inhibition: it is the percentage by which the read-out fell short of the control. Broadly, the melting point is the temperature of the solid-liquid transition.

One data set concerns the target T1, (H+/K+)-ATPase (Canis lupus familiaris, UniProt P50996).
T1 construct: The microsomes retained at the 15%-30% sucrose interface, after centrifugation at 250,000×g for sixty minutes, were used as the source of (H^+/K^+)-ATPase; from tissue; host or cells: gastric glandular mucosa of mongrel dogs (microsomal fraction, lyophilized)
Description: Inhibition of (H+/K+)-ATPase from canine gastric mucosa (inorganic phosphate release). It is filed as biochemical. The conditions noted are these: canine gastric mucosa microsomes, pH 6.0, 30 min preincubation at 37° C.; read-out: (H+/K+)-ATPase IC50. An outline of the steps:
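Lyophilised gastric microsomes (sucrose-gradient 15%/30% interface fraction from dog mucosa, ~25 mcg protein) preincubated with compound 30 min at 37° C in 20 mM MES-Tris pH 6.0, 5 mM MgCl2, 25 mM sucrose, then 30 min more after 4 mM Tris-ATP. Released phosphate read by molybdate/ascorbate at 870 nm; activity = K+-stimulated (20 mM KCl) minus basal.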

The target in data set [1] is HCMV protease (assemblin) (Human cytomegalovirus, UniProt P16753). Description: Enzymatic assay for HCMV protease (assemblin) inhibitors, fluorogenic substrate DE2. It is filed as biochemical. The conditions noted are these: at 100 μm; 30 min preincubation at 22° C.; read-out: Assemblin Inhibition % Inhibition at 100 μm. The protocol: The enzymatic assay for assemblin inhibitors compared the rate of product appearance between a control reaction containing no inhibitor and one that contained a known concentration of a potential inhibitor. There were two phases to the enzyme reaction. The first was a period of incubation of enzyme in the presence of inhibitor, but in the absence of the substrate. This incubation allowed for the inhibitor to bind and potentially block the enzyme from hydrolyzing the substrate. The second phase was started by adding the substrate and measuring the rate of product production.
Chain of HCMV protease (assemblin) (P16753 1-256): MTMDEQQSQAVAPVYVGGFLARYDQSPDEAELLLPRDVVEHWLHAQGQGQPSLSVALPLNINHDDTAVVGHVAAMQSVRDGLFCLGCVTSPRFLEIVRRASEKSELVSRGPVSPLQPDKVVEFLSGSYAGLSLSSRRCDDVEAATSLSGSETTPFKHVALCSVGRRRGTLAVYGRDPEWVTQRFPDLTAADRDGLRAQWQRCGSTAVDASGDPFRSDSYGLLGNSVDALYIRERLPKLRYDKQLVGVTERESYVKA
The construction also encoded six additional histidine residues at the amino terminus of the protease. These additional histidine residues provided an affinity ligand by which it was purified using nickel-nitriloacetic acid-agarose (Qiagen).
The purified protease was stored as a 1-3 mg/ml stock solution in 50 mM sodium phosphate buffer, pH 7.4; 300 mM sodium chloride; 100 mM imidazole; 50% (v/v) glycerol. This stock was diluted with assay buffer to 4.8 μg/ml. A 100 μL aliquot of this solution was used in the enzyme reaction.
A specific substrate was synthesized based on the cleavage specificity of HCMV protease at the “maturation site” of the assembly protein (F. Liu and B. Roizman, J. Viral. 65, 5149 (1991), and A. R. Welch, et al, J. Viral., 65 4091 (1991)). The assembly protein maturation site has the sequence . . . AGVVNA*SCRLATA . . . (SEQ ID NO. 1); the substrate used was dabcycl-Abu-[…]-edans (SEQ ID NO. 2) (DE2). […] However, when the two chromophores are separated because of hydrolysis of the peptide moiety by HCMV protease the edans fluorescence was no longer quenched and an increase in fluorescence was realized. DE2 was stored as a stock solution at 160 μg/ml in dimethyl sulfoxide. This was diluted 10-fold with assay buffer to give a concentration of 16 μg/ml just before use. An aliquot of 50 μL was used in the reaction.
An assay Buffer (10 mM sodium phosphate buffer, pH 7.4; 150 mM sodium acetate; 0.1% CHAPS; and 20% (v/v) glycerol) was used to dilute stock solutions of enzyme and substrate.
Inhibitors were dissolved in dimethyl sulfoxide at 16-times the final assay concentration. A 10 μL aliquot of this inhibitor solution was used in the reaction.
A 100 μL aliquot of enzyme solution (4.8 μg/ml) was mixed with 10 μL of inhibitor solution in a 96-well plate cell and incubated at 22° C. for 30 minutes. Control reactions contained 10 μL of dimethylsulfoxide instead of inhibitor solution. After the preincubation was completed, 50 μL of substrate solution was added and the fluorescence recorded every 5 minutes for a period of 30 minutes. All reactions were run in triplicate with the exception of the uninhibited control reaction which was replicated 6-fold. The change in fluorescence was recorded over time and an average rate for each set of 3 reactions was calculated. Fluorescence assays were subject to spurious various due to factors such as dust in the 96-well plate; such results were omitted from the calculation of relative rates.

T1 sequence (P50996 whole entry): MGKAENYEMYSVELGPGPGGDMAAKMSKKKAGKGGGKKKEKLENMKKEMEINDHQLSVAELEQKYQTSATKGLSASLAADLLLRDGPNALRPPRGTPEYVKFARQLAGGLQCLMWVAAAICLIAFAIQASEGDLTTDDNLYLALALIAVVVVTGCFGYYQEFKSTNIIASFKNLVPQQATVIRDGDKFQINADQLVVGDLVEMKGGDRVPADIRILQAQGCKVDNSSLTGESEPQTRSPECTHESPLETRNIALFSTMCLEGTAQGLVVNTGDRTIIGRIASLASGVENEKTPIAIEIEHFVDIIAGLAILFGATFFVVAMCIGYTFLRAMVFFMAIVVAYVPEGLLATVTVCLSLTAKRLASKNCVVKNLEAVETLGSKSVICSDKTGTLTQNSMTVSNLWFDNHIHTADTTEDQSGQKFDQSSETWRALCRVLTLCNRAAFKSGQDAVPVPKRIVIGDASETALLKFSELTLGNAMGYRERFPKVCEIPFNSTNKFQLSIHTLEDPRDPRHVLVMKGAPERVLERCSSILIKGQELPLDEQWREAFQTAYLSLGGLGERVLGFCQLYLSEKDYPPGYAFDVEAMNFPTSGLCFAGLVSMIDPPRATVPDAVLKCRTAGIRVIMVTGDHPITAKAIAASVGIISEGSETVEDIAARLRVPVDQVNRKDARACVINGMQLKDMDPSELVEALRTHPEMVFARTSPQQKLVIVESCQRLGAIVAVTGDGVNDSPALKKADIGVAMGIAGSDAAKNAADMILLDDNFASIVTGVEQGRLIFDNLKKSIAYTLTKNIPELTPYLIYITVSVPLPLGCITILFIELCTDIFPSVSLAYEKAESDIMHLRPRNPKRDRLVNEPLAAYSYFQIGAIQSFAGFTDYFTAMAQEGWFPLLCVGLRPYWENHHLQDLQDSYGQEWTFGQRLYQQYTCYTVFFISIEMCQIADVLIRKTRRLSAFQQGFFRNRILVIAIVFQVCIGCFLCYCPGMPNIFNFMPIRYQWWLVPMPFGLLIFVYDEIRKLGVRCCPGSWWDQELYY
T1 sequence (P33704 whole entry partner): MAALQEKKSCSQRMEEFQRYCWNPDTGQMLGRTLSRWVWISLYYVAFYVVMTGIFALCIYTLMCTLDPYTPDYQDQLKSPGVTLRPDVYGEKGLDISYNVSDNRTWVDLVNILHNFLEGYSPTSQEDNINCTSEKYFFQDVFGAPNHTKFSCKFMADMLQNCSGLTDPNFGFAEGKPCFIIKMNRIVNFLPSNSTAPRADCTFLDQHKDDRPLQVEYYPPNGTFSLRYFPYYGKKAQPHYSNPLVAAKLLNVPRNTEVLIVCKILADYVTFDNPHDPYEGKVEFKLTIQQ

For `COc1ccc2[nH]c([S+]([O-])Cc3ncc(C)c(OC)c3C)nc2c1` (stereo not shown) [omeprazole, reference compound], the IC50 on (H+/K+)-ATPase was found to be 1900 nM. Moreover, in data set [1], the inhibition at 100 µM was 0%.
Regarding `Nc1ccccc1C[S+]([O-])c1nc2cc(Cl)ccc2[nH]1` (stereo not shown) [Example 43, 2-[[(5-Chloro-1H-benzimidazol-2-yl)sulfinyl]-methyl]benzenamine], the melting point lay in the range of 165 to 166 °C. For the same compound, the IC50 at (H+/K+)-ATPase came out at 12000 nM. Moreover, the inhibition at 100 µM in data set [1] is 74%.
For `COc1ccc(N)c(C[S+]([O-])c2nc3ccccc3[nH]2)c1` (stereo not shown) [Example 20, 2-[(1H-Benzimidazol-2-ylsulfinyl)methyl]-4-methoxybenzenamine] the same measures were 152 to 153 °C, 1600 nM and 60%.
On to `Cc1ccc(C[S+]([O-])c2nc3ccccc3[nH]2)c(N)c1C` (stereo not shown) [Example 53, 2-[(1H-Benzimidazol-2-ylsulfinyl)methyl]-5,6-dimethylbenzenamine ¼ hydrate], for which the IC50 on (H+/K+)-ATPase amounted to 600 nM. Moreover, the inhibition at 100 µM in data set [1] was found to be 85%.
Consider `Cc1ccc2[nH]c([S+]([O-])Cc3ccccc3N)nc2c1` (stereo not shown) [Example 41, 2-[[(5-Methyl-1H-benzimidazol-2-yl)sulfinyl]-methyl]benzenamine], for which the melting point was in the range of 170 to 171 °C. For the same compound, on (H+/K+)-ATPase, the IC50 is 7900 nM. Moreover, in data set [1], the inhibition at 100 µM was 67%.
The matching figures for `COc1ccc2[nH]c([S+]([O-])Cc3c(N)cc(C)c(OC)c3C)nc2c1` (stereo not shown) [Example 78, 2-[[(5-Methoxy-1H-benzimidazol-2-yl)sulfinyl]methyl]-4-methoxy-3,5-dimethylbenzenamine]: 149 to 155 °C, 2100 nM and 82%.
